Experimental data from patent US9273043B2, “TRPV1 antagonists including dihydroxy substituent and uses thereof” (Purdue Pharma L.P., priority 2011, dated 2016).

Columns and labels:
human TRPV1 [1] = target: T1, human TRPV1 (Homo sapiens (Human), UniProt Q8NER1); test: pH-based assay, Protocol 2, TRPV1/CHO cells (hpH-CHO), Fura-2 Ca2+ influx; assay type: cell-based; conditions: pH 5.0-5.1 (H2SO4), mean ± SEM
Experimental: For Protocol 2, a Chinese Hamster Ovary cell line (CHO) that has been engineered to constitutively express human recombinant TRPV1 was used (TRPV1/CHO cells). The TRPV1/CHO cell line was generated as described below.
TRPV1/CHO cells were seeded in the 96-well clear-bottom black-wall plate (Nunc) at densities of 1-2×10^4 cells/well and grown in 100 μL of culture medium (alpha-MEM supplemented with 10% FBS, 20 mM HEPES, 1 mg/mL geneticin and 1% antibiotic-antimycotic mixed stock solution) for 1-2 days before the experiment.
(1) Culture medium was removed using an 8-channel-pipette (Rainin, USA) from the 96-well plate and the wells were refilled with 100 μL of loading buffer (20 mM HEPES, 115 mM NaCl, 5.4 mM KCl, 0.8 mM MgCl2, 1.8 mM CaCl2, 13.8 mM D-glucose, 2.5 mM probenecid, pH 7.4) containing 5 μM Fura-2 AM (Dojin, Japan).
(2) The 96-well plate was incubated at 37° C. for 45 min.
(3) The loading buffer was removed from each well. The cells were subsequently washed twice with 150 μL of measuring buffer (20 mM HEPES, 115 mM NaCl, 5.4 mM KCl, 0.8 mM MgCl2, 5.0 mM CaCl2, 13.8 mM D-glucose, 0.1% BSA, pH 7.4) (no probenecid). The wells were then refilled with 80 μL of measuring buffer.
(4) After an incubation at 4° C. for 15 min, the 96-well plate was transferred to a model FDSS-3000 plate reader apparatus (Hamamatsu Photonics K.K., Japan).
(5) The Fura-2 fluorescent intensity was monitored at a wavelength of 340 nm and at 380 nm, respectively, at a rate of 0.5 Hz for a total of 240 seconds. After 16 time points (32 sec) of baseline detection, 20 μL of agonist solution was added to each well. The final volume was 100 μL/well.
(6) Fluorescence intensity ratio refers to the fluorescence intensity at 340 nm over the fluorescence intensity at 380 nm at a particular time point. The baseline was set as the average of the fluorescent intensity ratios for the first 16 time points before the addition of agonist solution. The maximum response was the highest fluorescent intensity ratio during the 60 time points following addition of agonist solution.
(7) Maximal signal ratios from each well were calculated as output data using the FDSS-3000 analysis program. Data were analyzed using Excel (Microsoft) and XLfit (idbs) software.
In an “agonist plate,” two different agonist solutions with different H2SO4 concentrations were used for the pH assay (see, e.g., FIG. 3A of U.S. Patent Application Publication No. US 2009/0170868 A1). For the first half of a 96-well plate one agonist solution was used; for the second half the other agonist solution was used. The agonist solutions were obtained by diluting sulfuric acid (1M H2SO4) with measuring buffer. The concentrations for the two agonist solutions were determined as described above in Section 2 of Protocol 2.
The sulfuric acid concentrations between the two agonist solutions differed by 0.5 mM. In the experiment described in Section 2 of Protocol 2, the sulfuric acid concentrations in the agonist solutions were determined to be 16 mM and 16.5 mM, respectively. After 1:4 dilution of the agonist solutions, the final sulfuric acid concentration was 3.2 mM and 3.3 mM, respectively. The resulting pH value for the pH assay was 5.0 to 5.1.
Test compounds were dissolved in DMSO to yield 1 mM stock solutions. The stock solutions were further diluted using DMSO in […] serial dilution steps with 6 points (1000, 250, 62.5, 15.625, 3.9062, and 0.977 μM). The thereby-obtained solutions were further diluted in measuring buffer (1:100) as 10× stock serial dilutions with a DMSO concentration of 1%. 10 μL of a 10× stock was added into each well of an “antagonist plate” (see step 3.3.(4) below). Thus, the final concentrations of antagonists was as follows: 0.977, 3.906, 15.63, 62.5, 250, and 1000 nM containing 0.1% DMSO (see, e.g., FIG. 3B of U.S. Patent Application Publication No. US 2009/0170868 A1).
Steps (1) and (2) of this Assay were the same as steps 2.2.(1) and 2.2.(2), respectively, of Protocol 2. […]

human TRPV1 [2] = target: T1, human TRPV1; test: Capsaicin-based assay, Protocol 2, TRPV1/CHO cells (hCAP-CHO), Fluo-4 FLIPR; assay type: cell-based; conditions: 100 nM capsaicin, mean ± SEM
From the text: The TRPV1/CHO cell line was generated as described below. […] The resulting PCR products were purified from agarose gels using Gel Band Purification Kit (GE Healthcare Bioscience) and were subcloned into pCR-Blunt vector (Invitrogen). The cloned cDNA was fully sequenced using a fluorescent dye-terminator reagent (BigDye Terminator ver3.1 Cycle Sequencing Kit, Applied Biosystems) and ABI Prism 3100 genetic analyzer (Applied Biosystems). The pCR-Blunt vector containing the hTRPV1 cDNA was subjected to restriction digestion with EcoR1. The restriction fragment was subcloned into expression vector pcDNA3.1(-) (Invitrogen) and named pcDNA3.1(-)-hVR1 plasmid. The sequence of the cDNA encoding TRPV1 is available at GenBank accession number AJ277028. […] The cells were transfected with the pcDNA3.1(-)-hVR1 plasmid using FuGENE6 (Roche) according to the manufacturer's protocol. 24 hr after transfection, neomycin-resistant cells were selected using 1 mg/mL G418 (Nacalai Tesque). […] The cells expressing hTRPV1 were cultured in the growth medium supplemented with 1 mg/mL G418. […] Capsaicin-based Assay: […] Subsequently, the cells were loaded by incubation in 0.1 mL of wash buffer containing Fluo-4 at 3 μM final concentration. After 1 hour, the cells were washed twice with 0.2 mL wash buffer and resuspended in 0.1 mL wash buffer. The plates were then transferred to a Fluorescence Imaging Plate Reader (Molecular Devices). Fluorescence intensity was monitored for 15 seconds to establish a baseline. […] The final concentration of the compound was adjusted to range from 100 μM to 1.5625 μM. […] Data were collected over the entire time course and analyzed using Excel and the curve-fitting formula GraphPad Prism.

T1 sequence (Q8NER1 whole entry, looked up): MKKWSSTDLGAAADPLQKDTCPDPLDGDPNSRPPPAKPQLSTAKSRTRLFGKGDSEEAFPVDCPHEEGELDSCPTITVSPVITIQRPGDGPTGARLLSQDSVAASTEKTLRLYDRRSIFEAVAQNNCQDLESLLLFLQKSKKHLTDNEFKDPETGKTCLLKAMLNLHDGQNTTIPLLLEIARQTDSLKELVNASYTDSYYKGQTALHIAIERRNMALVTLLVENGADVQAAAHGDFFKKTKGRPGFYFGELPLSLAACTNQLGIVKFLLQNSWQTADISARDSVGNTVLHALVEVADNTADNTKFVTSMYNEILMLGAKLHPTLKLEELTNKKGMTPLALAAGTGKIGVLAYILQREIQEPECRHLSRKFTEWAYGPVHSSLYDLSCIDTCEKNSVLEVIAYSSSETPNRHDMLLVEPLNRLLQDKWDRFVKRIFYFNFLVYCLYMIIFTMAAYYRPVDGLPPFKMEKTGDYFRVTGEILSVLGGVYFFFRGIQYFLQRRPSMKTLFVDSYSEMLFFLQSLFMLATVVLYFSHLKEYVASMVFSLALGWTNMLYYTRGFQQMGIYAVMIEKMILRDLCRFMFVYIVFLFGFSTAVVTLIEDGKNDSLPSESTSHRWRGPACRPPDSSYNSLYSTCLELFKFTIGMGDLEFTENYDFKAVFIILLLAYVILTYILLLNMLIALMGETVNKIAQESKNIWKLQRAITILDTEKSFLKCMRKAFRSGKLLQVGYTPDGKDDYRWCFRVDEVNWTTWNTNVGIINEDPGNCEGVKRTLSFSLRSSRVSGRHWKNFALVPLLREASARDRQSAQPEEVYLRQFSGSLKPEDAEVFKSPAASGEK

SMILES | IC50 (human TRPV1 [1]) [nM] | IC50 (human TRPV1 [2]) [nM]
C[C@@H]1CN(C(=O)Nc2nc3ccccc3s2)CCN1c1ncc([C@H](O)CO)cc1F [A122(b), (R)—N-(benzo[d]thiazol-2-yl)-4-(5-((S)-1,2-dihydroxyethyl)-3-fluoropyridin-2-yl)-3-methylpiperazine-1-carboxamide] | 670 ± 94 | 444 ± 79
C[C@H]1CN(C(=O)Nc2nc3ccccc3s2)CCN1c1ncc([C@H](O)CO)cc1F [A122(c), (S)—N-(benzo[d]thiazol-2-yl)-4-{5-[(S)-1,2-dihydroxyethyl]-3-fluoropyridin-2-yl}-3-methylpiperazine-1-carboxamide] | 553 ± 12 | 178 ± 29
C[C@@H]1CN(c2ncc([C@@H](O)CO)cc2F)CCN1C(=O)Nc1nc2ccc(Cl)cc2s1 [A123(e), (R)—N-(6-chlorobenzo[d]thiazol-2-yl)-4-(5-((R)-1,2-dihydroxyethyl)-3-fluoropyridin-2-yl)-2-methylpiperazine-1-carboxamide] | 0.4 | 11.5 ± 1.4
Cc1ccc2nc(NC(=O)N3CCN(c4ncc([C@@H](O)CO)cc4F)C[C@H]3C)sc2c1 [A126(e), (R)-4-(5-((R)-1,2-dihydroxyethyl)-3-fluoropyridin-2-yl)-2-methyl-N-(6-methylbenzo[d]thiazol-2-yl)piperazine-1-carboxamide] | 0.4 | 18.2 ± 2.9
C[C@@H]1CN(C(=O)Nc2nc3cc(F)ccc3s2)CCN1c1ncc([C@H](O)CO)cc1F [A155(b), (R)-4-{5-[(S)-1,2-dihydroxyethyl]-3-fluoropyridin-2-yl}-N-(5-fluorobenzo[d]thiazol-2-yl)-3-methylpiperazine-1-carboxamide] | 134 ± 16 | 216 ± 57
C[C@H](O)[C@@H](O)c1cnc(N2CCN(C(=O)Nc3nc4ccccc4s3)C[C@H]2C)c(F)c1 [B122(j), (R)—N-(benzo[d]thiazol-2-yl)-4-{5-[(1S,2S)-1,2-dihydroxypropyl]-3-fluoropyridin-2-yl}-3-methylpiperazine-1-carboxamide] | 1720 | 586 ± 78
C[C@H](O)[C@@H](O)c1cnc(N2CCN(C(=O)Nc3nc4ccccc4s3)C[C@@H]2C)c(F)c1 [B122(k), (S)—N-(benzo[d]thiazol-2-yl)-4-{5-[(1S,2S)-1,2-dihydroxypropyl]-3-fluoropyridin-2-yl}-3-methylpiperazine-1-carboxamide] | 2040 ± 245 | 502 ± 128
C[C@@H]1CN(C(=O)Nc2nc3ccccc3s2)CCN1c1ncc([C@@H](O)[C@@H](C)O)cc1F [B122(o), (R)—N-(benzo[d]thiazol-2-yl)-4-{5-[(1R,2R)-1,2-dihydroxypropyl]-3-fluoropyridin-2-yl}-3-methylpiperazine-1-carboxamide] | 6880 | 199 ± 38
C[C@@H](O)[C@H](O)c1cnc(N2CCN(C(=O)Nc3nc4ccccc4s3)C[C@@H]2C)c(F)c1 [B122(p), (S)—N-(benzo[d]thiazol-2-yl)-4-{5-[(1R,2R)-1,2-dihydroxypropyl]-3-fluoropyridin-2-yl}-3-methylpiperazine-1-carboxamide] | 1020 | 506 ± 155
C[C@H](O)[C@@H](O)c1cnc(N2CCN(C(=O)Nc3nc4ccc(F)cc4s3)C[C@H]2C)c(F)c1 [B125(j), (R)-4-{5-[(1S,2S)-1,2-dihydroxypropyl]-3-fluoropyridin-2-yl}-N-(6-fluorobenzo[d]thiazol-2-yl)-3-methylpiperazine-1-carboxamide] | 303 | 194 ± 49
C[C@@H]1CN(C(=O)Nc2nc3ccc(F)cc3s2)CCN1c1ncc([C@@H](O)[C@@H](C)O)cc1F [B125(o), (R)-4-{5-[(1R,2R)-1,2-dihydroxypropyl]-3-fluoropyridin-2-yl}-N-(6-fluorobenzo[d]thiazol-2-yl)-3-methylpiperazine-1-carboxamide] | 398 ± 152 | 309 ± 105
C[C@@H](O)[C@H](O)c1cnc(N2CCN(C(=O)Nc3nc4ccc(F)cc4s3)C[C@@H]2C)c(F)c1 [B125(p), (S)-4-Z{5-[(1R,2R)-1,2-dihydroxypropyl]-3-fluoropyridin-2-yl}-N-(5-fluorobenzo[d]thiazol-2-yl)-3-methylpiperazine-1-carboxamide] | 211 ± 50 | 171 ± 1
